The structures appear in SMILES notation. Values after ≈ are worked out from the molar mass of the structure shown.

One data set addresses pig pancreas esterase. Description: esterase-inhibiting activity, crude pig pancreas lipase preparation with p-nitrophenyl acetate as substrate. In kind it is biochemical. To be noted: for ID50, dose giving 50% inhibition to esterase: p-nitrophenyl acetate substrate, pH 7.0, 20° C., 30 minutes, pure products; for IC50: pig pancreas esterase, p-nitrophenyl acetate as the substrate, read-out: level giving 50% inhibition of the esterase. Here is the method: Thus, a commercially available, crude lipase preparation obtained from pig pancreas is dissolved to a concentration of 0.5% (by weight) in a 0.05M phosphate buffered solution (pH 7.0) containing 0.2% "Triton X-100" (a trade name of an emulsifier consisting of a polyethyleneglycol alkylphenylether, a product of Rohm & Haas Co., U.S.A.). This lipase solution (0.03 ml), 2.92 ml of 0.05 M phosphate buffered solution (pH 7.0) and 0.025 ml of a solution containing a sample of the new compound to be assayed are mixed together, and the resulting mixture (2.975 ml) is warmed at 20° C. for 3 minutes and then admixed with 0.025 ml of a solution containing 10 mg/ml of p-nitrophenyl acetate in methanol to start the reaction of p-nitrophenyl acetate with lipase. After the enzymatic reaction is effected at 20° C. for 30 minutes, absorbance (a) at 400 nm of the resulting reaction solution is measured. On the other hand, absorbance (b) at 400 nm of a control reaction solution obtained from the blank test using the 0.05M phosphate buffered solution not containing the new compound to be assayed is measured in the same way as above. Degree (%) of inhibition to esterase is calculated according to the following equation: [formula]

The subject of the next data set is cholesterol esterase. Briefly: cholesterol esterase inhibition, cholesterol acetate as substrate, liberated cholesterol determined. In kind it is biochemical. To be noted: 37° C., 3 minutes; for cholesterol esterase-inhibiting activity relative to the parent esterastin: printed as 3-fold and 20 times higher. An excerpt: Furthermore, the new compounds of this invention all have advantageously a remarkably higher activity of inhibiting cholesterol esterase than the parent esterastin.

A short description of another data set: storage stability. In kind it is physicochemical. An excerpt:
In contrast, the new compound, tetrahydroesterastin is fairly stable so that it can be stored in the form of a powder as such for a long time of 1 year or more without lowering its activity.

Data set [1] has as its system cells forming humoral antibody. Particulars: background statement; cited from earlier work.
A further data set has as its system cell-mediated immunity. To be noted: background statement; cited from earlier work.
Data set [2] relates to inflammation caused by carrageenin. Particulars: background statement; cited from earlier work.
Data set [3] has as its system esterase of pig pancrease. Particulars: cited from earlier work.

Take `CCCCCCCCCCCC(CC1OC(=O)C1CCCCCC)OC(=O)C(CC(N)=O)NC(C)=O` (centres unmarked) [tetrahydroesterastin]: on pig pancreas esterase, the “ID50, dose giving 50% inhibition to esterase” value was 3.3 ng/mL (≈ 0.00646 µM) and the IC50 amounted to 6.4 nM. Moreover, the “cholesterol esterase-inhibiting activity relative to the parent esterastin” value in the data set with cholesterol esterase is recorded as “about 3 fold”. In addition, the “stability on storage (in words)” value in the data set “storage stability” was “fairly stable”. In addition, the “storage time as powder without lowering its activity” value in “storage stability” (stored in the form of a powder as such) is reported as not below 1 year.
Turning to `CCCCCCCCCCCC(O)CC1OC(=O)C1CCCCCC` (centres unmarked) [3,5-di-hydroxy-2-hexylhexadecanoic 1,3-lactone], on pig pancreas esterase, the “ID50, dose giving 50% inhibition to esterase” value stood at 9 ng/mL (≈ 0.0254 µM) and the IC50 worked out at 25 nM.
For `CCCCCC=CCC=CCC(CC1OC(=O)C1CCCCCC)OC(=O)C(CC(N)=O)NC(C)=O` (centres unmarked) [esterastin], the “ID50, dose giving 50% inhibition to esterase” value on pig pancreas esterase is 0.2 ng/mL (≈ 0.000395 µM). Also, the “stability on storage (in words)” value in the data set “storage stability” was “fairly unstable”. For the same molecule, the “effect on number of cells forming humoral antibody” value in data set [1] is “reduce the number of the cells forming humoral antibody”. Moreover, in the data set on cell-mediated immunity, the “effect on cell-mediated immunity” value is “suppress the cell-mediated immunity”. In addition, the “effect on inflammation caused by carrageenin” value in data set [2] is on record as “inhibits the inflammation caused by carrageenin”.
Regarding `CCOP(=O)(OCC)Oc1ccc([N+](=O)[O-])cc1` [paradoxon], the “inhibition of the esterase of pig pancreas (in words)” value in data set [3] was “inhibit the esterase”.
Turning to `CCCCCC=CCC=CCC(O)CC1OC(=O)C1CCCCCC` (centres unmarked) [3,5-di-hydroxy-2-hexylhexadeca-7,10-dienoic 1,3-lactone], at pig pancreas esterase, the “ID50, dose giving 50% inhibition to esterase” value worked out at 7 ng/mL (≈ 0.02 µM) and the IC50 was 20 nM. For the same molecule, in the data set on cholesterol esterase, the “cholesterol esterase-inhibiting activity relative to tetrahydroesterastin” value is recorded as “about 7 times” and the “cholesterol esterase-inhibiting activity relative to the parent esterastin” value was “about 20 fold”.

The record behind these values is US4202824A, “Physiologically active derivatives of esterastin” (Zaidan Hojin Biseibutsu Kagaku Kenkyu Kai, priority 1978, dated 1980).
